In patent publication US8080659B2, “CXCR4 antagonists including diazine and triazine structures for the treatment of medical disorders” (Emory University, priority 2006, dated 2011):

Columns and labels:
[1] = clinical trials; cited from earlier work
CXCR4 [2] = molecular target: T1, CXCR4 (Homo sapiens, UniProt P61073); experiment: SDF-1-stimulated Akt phosphorylation in MDA-MB-231 cells (western blot); type: cell-based; parameters: endogenous in cells; host or cells: MDA-MB-231; details: for concentration blocking Akt activation: 100 ng/ml SDF-1, 30 minutes; for block of SDF-1-stimulated phosphorylation of Akt: MDA-MB-231 cells, 100 ng/ml SDF-1, 30 min, dose-dependent
Description: FIG. 2 is an image of a western blot showing phosphorylation of Akt. Incubating MDA-MB-231 cells with 100 ng/ml of SDF-1 for 30 min stimulated phosphorylation of Akt. This activation was blocked with TN14003 or AMD3100 in a dose-dependent manner.
CXCR4/SDF-1 interaction activates PI3K/Akt and Ras/Raf/MEK/Erk pathways in a Gαi protein (PTX-sensitive)-dependent manner. Experiments were conducted to determine the effect of blocking CXCR4/SDF-1 interaction by either TN14003 or AMD3100 at different concentrations (0, 0.01, 0.1, 1, 10, 100, 1000 nM) on phosphorylations of Akt and Erk1/2 signaling. Incubating cells with 100 ng/ml of SDF-1 for 30 minutes activated Akt. […] However, the increase in Erk1/2 phosphorylation by SDF-1 was not significant as the increase in Akt phosphorylation.
(§1) WZZL811S was tested in a matrigel invasion assay to determine whether it can inhibit CXCR4/SDF-1-mediated invasion.

CXCR4 [3] = molecular target: T1, CXCR4; experiment: competition assay using biotin-labeled TN14003 on tumor cells; type: binding; parameters: endogenous in cells; probably MDA-MB-231
From the text: In a separate embodiment, a process for screening potential drug candidates is provided. The process includes providing a labeled peptide-based CXCR4 antagonist that has a detectable signal when bound to a CXCR4 receptor; contacting a CXCR4 receptor with at least one test molecule at a known concentration to form a test sample; contacting the test sample with the peptide-based antagonist; separately, contacting the peptide-based antagonist to a sample not including any test molecule to form a control sample; and comparing the signal from the test sample to the signal from the control sample. In a specific sub-embodiment, the peptide-based antagonist is derived from TN14003 (described in PCT Publication No. WO 04/087068 to Emory University). In a further subembodiment, the antagonist is labeled with a biotin molecule and the signal is elicited when the biotin-labeled antagonist is contacted with a streptavadin-conjugated signal molecule.
The signal elicited by binding of the CXCR4 antagonist and the receptor can be a fluorescent signal. […]
The peptide-based antagonist is typically a molecule with high affinity for the receptor. […] In this embodiment, the test compound is incubated with the receptor at varying concentrations and the signal elicited after binding of the labeled antagonist is measured and compared to control, as well as to each other. […]

CXCR4 [4] = experiment: CXCR4 protein levels after treatment of cells; type: cell-based, human
CXCR4 [5] = molecular target: T1, CXCR4; experiment: SDF-1-stimulated Erk1/2 phosphorylation; type: cell-based; parameters: endogenous in cells; host or cells: MDA-MB-231; details: data not shown
Description: CXCR4/SDF-1 interaction activates PI3K/Akt and Ras/Raf/MEK/Erk pathways in a Gαi protein (PTX-sensitive)-dependent manner. Experiments were conducted to determine the effect of blocking CXCR4/SDF-1 interaction by either TN14003 or AMD3100 at different concentrations (0, 0.01, 0.1, 1, 10, 100, 1000 nM) on phosphorylations of Akt and Erk1/2 signaling.

[6] = test system: hypoxia-responsive element (HRE) of VEGF promoter; experiment: HRE-luciferase reporter of VEGF promoter activity in HRE-Luc MB-231 cells; type: cell-based, human
From the text: To determine whether lowering CXCR4 levels might affect VEGF transcription compared to HIF-1α the hypoxia-reporting luciferase/LacZ plasmid from Dr. Van Meir's laboratory was used as a reporter system to detect hypoxia-responsive element (HRE) of VEGF promoter activity (Post, D. E. and Van Meir, E. G. (2001) Gene Ther 8: 1801-1807). The sequence of HIF-1α siRNA was 5′-UUCAAGUUGGAAUUGGUAGdTdT-3′ (SEQ. ID No. 3). Pooled cell clones were created with MDA-MB-231 cells stably transfected with this plasmid (called HRE-Luc MB-231). Unexpectedly, HRE activity in normoxia was moderately high in MDA-MB-231 cells that have high CXCR4 levels in normoxia (FIG. 6, left), which was not observed in other cell lines with low CXCR4 and HIF-1 levels (LN229, U87, 9L, and MDA-MB-435). This moderately high HRE activity in MDA-MB-231 cells was suppressed by CXCR4 siRNA or HIF-1α siRNA. […] As expected, the HRE activity increased 2.5-fold by hypoxia treatment (1% oxygen and 5% CO2 in nitrogen). This elevated HRE activity was again suppressed by siRNA for CXCR4 or HIF-1α (FIG. 6, right).

686LN cells = experiment: Head & Neck cancer metastasis model, 686LN cells i.v., FDG-PET; type: in vivo, mice; details: 20 mg/mouse/twice weekly, thirty days
Description: The metastatic 686LN cells were injected intravenously through the tail vein to generate experimental animal models for Head & Neck cancer metastasis, modulated via CXCR4. […] These 3-D projection images show lung metastases well (bone mets and liver mets were apparent in axial section images of mice in control groups, data not shown).

MDA-MB-231 cells = experiment: matrigel invasion assay, CXCR4/SDF-1-mediated invasion; type: cell-based, human; details: 2 nM
Description: Lowering CXCR4 mRNA levels by siRNAs inhibited CXCR4/SDF-1-mediated invasion as measured by a matrigel invasion assay. The CXCR4 ligand, SDF-1 (400 ng/ml) was added to the lower chamber to attract CXCR4-positive breast cancer cells to migrate through the matrigel. The invasion of MDA-MB-231 cells transfected with siRNA1 decreased to 39±4% of the control cells, 51±8% with siRNA2, and only 16±6% with both siRNA1+2 (FIG. 3A).
as §1

[7] = test system: human umbilical vein endothelial cells (HUVECs); experiment: endothelial capillary tube formation assay; type: cell-based; details: 100 nM; SDF-1 100 ng/ml; 18 hours
Description: The anti-angiogenic effect of test compounds was measured by analyzing endothelial cell growth and tube formation. The angiogenic effect of SDF-1 (100 ng/ml) on capillary formation by human umbilical vein endothelial cells (HUVECs) was examined in vitro using Matrigel-coated 24-well plates precoated with Matrigel and incubated for 18 hours. The angiogenic effect of SDF-1 was inhibited by either 100 nM TN14003 (peptide-based CXCR4 antagonist) or WZZL811S treatment (FIG. 14a, graph FIG. 14b).

HIV = details: MT-4 cells; read-out: concentration required for 50% protection of HIV-induced cytopathogenicity; cited from earlier work
MT-4 cells = details: cited from earlier work

T1 sequence (P61073 whole entry): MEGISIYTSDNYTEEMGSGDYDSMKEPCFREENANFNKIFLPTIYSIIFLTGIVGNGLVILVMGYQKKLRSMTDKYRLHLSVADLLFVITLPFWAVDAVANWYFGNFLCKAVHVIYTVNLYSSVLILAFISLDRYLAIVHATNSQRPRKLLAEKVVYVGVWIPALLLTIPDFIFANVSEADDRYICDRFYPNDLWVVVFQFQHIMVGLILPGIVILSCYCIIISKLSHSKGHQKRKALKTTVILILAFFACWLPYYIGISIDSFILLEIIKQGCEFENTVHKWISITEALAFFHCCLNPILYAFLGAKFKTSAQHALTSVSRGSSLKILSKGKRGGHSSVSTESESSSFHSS

| Compound | side effect in clinical study [1] | concentration blocking Akt activation (CXCR4 [2]) | block of SDF-1-stimulated phosphorylation of Akt (CXCR4 [2]) | concentration needed to compete against biotin-labeled TN14003 (CXCR4 [3]) [µM] | effect on CXCR4 protein levels (CXCR4 [4]) | concentration attenuating Erk1/2 phosphorylation (CXCR4 [5]) | HRE activity ([6]; hypoxia (1% oxygen)) | HRE activity ([6]; normoxia) | metastasis to organs (686LN cells) | block of CXCR4/SDF-1 mediated invasion (MDA-MB-231 cells) | angiogenic effect of SDF-1 on capillary tube formation [7] | EC50 (HIV) [nM] | concentration leading to 50% toxicity (MT-4 cells) [µM] |
| --- | --- | --- | --- | --- | --- | --- | --- | --- | --- | --- | --- | --- | --- |
| C1=CC(CN2CCCNCCNCCCNCC2)CC=C1CN1CCCNCCNCCCNCC1 (centres unmarked) [AMD3100] | cardiac-related side effect | a few nano molar | blocked | 10 | did not affect | 100 nM | – | – | – | – | – | – | – |
| HIF-1α siRNA: HIF-1α siRNA, 5′-UUCAAGUUGGAAUUGGUAGdTdT-3′ (SEQ. ID No. 3) (guide UUCAAGUUGGAAUUGGUAGNN; further chemistry not given here) | – | – | – | – | – | – | suppressed | suppressed | – | – | – | – | – |
| TN14003 | – | sub-nano molar | blocked | – | did not affect | sub-nano molar | – | – | failed to metastasize to any organs | blocked | inhibited | 0.6 | 410 |
